Where two headings read alike, the source gives them in different places. Marks after values point to notes of the source that are not given here.
Key:
[1] = 40 mg/mL M4N/PEG 300 stability: RP-HPLC analysis; format: physicochemical
Description: (§1) The stability of 40 mg/mL M4N dissolved in 100% PEG 300 was evaluated up to 24 hours incubation at 30° C., 45° C. and 60° C. A stock 40 mg/mL M4N in PEG 300 was prepared at 60° C., following the procedure set forth in Example 17. Subsequently, aliquots were removed and incubated at the appropriate temperature. Samples were rotated at 450 rpm during the entire course of incubation. Visual observations and RP-HPLC data were collected throughout. […] The formation of crystals coincided with a loss of soluble M4N (Table 30). The 40 mg/mL M4N/PEG 300 samples incubated at 45° C. and 60° C. were stable after 24 hours incubation as assessed by visual observations and RP-HPLC analysis (Tables 29 and 30).

healthy male subjects = assay: Human Phase 0 microdose study: tolerability; format: in vivo; conditions: oral and intravenous administrations, 100 μg
Description: This study was designed to assess the absorption of M4N when administered to humans as a sub-therapeutic dose either as a single oral dose under fed and fasted conditions or a single intravenous dose (Regimens A-C, respectively, in Table 24). The study was a three-way crossover study design in a target population of healthy male subjects and consisted of three study periods of approximately 35 hours duration, each separated by a minimum period of at least 7 days between dosing. During the course of each study period, pharmacokinetic blood samples were taken at specified time points after dosing and urine was collected over pre-defined time intervals. The subjects were able to leave the clinical unit after the completion of study specific procedures at 24 hours post-dose.

[2] = Solubility of M4N in water-insoluble lipids (visual inspection); format: physicochemical
Description: A 10 mL solution of M4N at a concentration of about 50 mg/mL in sesame oil was made as follows. About 10 mL of sesame oil were added to a glass beaker containing a stir bar. The beaker was placed on a magnetic plate and the stir bar was set to stir at medium speed. About 500 mg of M4N were slowly added to the sesame oil in the center of the beaker with the aid of a spatula to prevent M4N from sticking to the beaker wall. The M4N/sesame oil mixture was stirred for about 2 hr or until all M4N had dissolved or was uniformly suspended without any clump being present. The M4N/sesame oil mixture was heated at about 60° C. for about 30 min. (or longer if a larger volume of solution was desired, for example, 1 hr at 60° C. for 500 mL of the M4N/sesame oil mixture), or longer as need to ensure complete dissolution of M4N. […] If crystals formed, the M4N/sesame oil solution could be heated again at 60° C. for about 1 hr, with stirring, on a hot magnetic plate until all M4N was dissolved back in solution. The final M4N/sesame oil solution was stored at room temperature and was kept protected from light.
A 10 mL solution of M4N at a concentration of about 60 mg/mL in 85% sesame oil and 15% Tween® 20 was made as follows. About 8.5 mL of sesame oil were added to a glass beaker containing a stir bar. The beaker was placed on a magnetic plate and the stir bar was set to stir at medium speed. About 1.5 mL of Tween® 20 was slowly added to the center of the beaker. About 600 mg of M4N were slowly added to the sesame oil/Tween® 20 mixture in the center of the beaker with the aid of a spatula to prevent M4N from sticking to the beaker wall. The M4N/sesame oil/Tween® 20 mixture was stirred for about 2 hr or until all M4N had dissolved or was uniformly suspended without any clumps being present. The M4N/sesame oil/Tween® 20 mixture was heated at about 60° C. for about 30 min. (or longer if a larger volume of solution was desired, for example, 1 hr at 60° C. for 500 mL of the M4N/sesame oil/Tween® 20 mixture), or longer as need to ensure complete dissolution of M4N. […]

[3] = Human Phase 0 three-way crossover microdose pharmacokinetic study of 14C-labelled M4N (AMS); format: in vivo
Text: This study was designed to assess the absorption of […] when administered to humans as a sub-therapeutic dose either as a single oral dose under fed and fasted conditions or a single intravenous dose (Regimens A-C, respectively, in Table 24). […] During the course of each study period, pharmacokinetic blood samples were taken at specified time points after dosing and urine was collected over pre-defined time intervals. The subjects were able to leave the clinical unit after the completion of study specific procedures at 24 hours post-dose. In this study, […] was administered to humans in a 100 μg quantity. […] Each oral administration of […] consisted of 0.1 mg of ^14C labeled […] and 376.8 mg of glycerol monooleate in a size 0 gelatin capsule. […] The baseline levels of […] were corrected for any residual […] remaining in the subjects following the periods between dosing so as not to inflate the levels of […] for any subsequent dosing.

[4] = 40 mg/mL M4N/PEG 300 stability: visual appearance; format: physicochemical
Description: as §1

Which results are given for COc1ccc(C[C@@H](C)[C@@H](C)Cc2ccc(OC)c(OC)c2)cc1OC [Formulation M4N, meso-1,4-bis(3,4-dimethoxyphenyl)-2,3-dimethylbutane]?
impurities peaks ([1]; 40 mg/mL M4N/PEG 300, 30° C., 45° C. and 60° C.): No changes; loss in soluble M4N ([1]; 40 mg/mL M4N/PEG 300, 24 hours at 30° C.): > 5%; adverse events (healthy male subjects): no serious or severe adverse events; tolerability of study formulations (healthy male subjects): well tolerated; stable at room temperature ([2]; 89% sesame oil and 11% Tween® 20, M4N 29 mg/mL, dissolved at 60° C.): more than 7 days; Stability Time at Room Temperature ([2]; Sesame Oil and Tween ® 20: 10% Oil emulsion in 90% saline, M4N 2.9 mg/mL): <3 days; stable at room temperature ([2]; sesame oil, M4N 50 mg/mL): less than 1 day; T½ ([3]; Regimen A (oral, fed): 100 μg single oral dose following a high fat breakfast, 14C, baseline corrected, mean ± SD): 96.5 ± 20.7 h; Cmax ([3]; Regimen A (oral, fed): 100 μg single oral dose following a high fat breakfast, 14C, baseline corrected, mean ± SD, read-out: Cmax): 5.94 ± 1.33 pM; Tmax ([3]; Regimen A (oral, fed): 100 μg single oral dose following a high fat breakfast, 14C, baseline corrected, median): 2.50^a hours; T½ ([3]; Regimen B (oral, fasted): 100 μg single oral dose following an overnight fast, 14C, baseline corrected, mean ± SD): 50.9 ± 22.4 h; Cmax ([3]; Regimen B (oral, fasted): 100 μg single oral dose following an overnight fast, 14C, baseline corrected, mean ± SD, read-out: Cmax): 9.29 ± 1.4 pM; Tmax ([3]; Regimen B (oral, fasted): 100 μg single oral dose following an overnight fast, 14C, baseline corrected, median): 1.00^a hours; T½ ([3]; Regimen C (Intravenous): 100 μg as 1 mL bolus intravenous solution following an overnight fast, 14C, baseline corrected, mean ± SD): 116.2 ± 64.0 h; Cmax ([3]; Regimen C (Intravenous): 100 μg as 1 mL bolus intravenous solution following an overnight fast, 14C, baseline corrected, mean ± SD, read-out: Cmax): 10.3 ± 1.77 pM; Tmax ([3]; Regimen C (Intravenous): 100 μg as 1 mL bolus intravenous solution following an overnight fast, 14C, baseline corrected, median): 0.08^a hours; Tmax ([3]; intravenous dose, eight of the ten subjects (first sampling time)): 0.08 h; Tmax ([3]; intravenous dose, two subjects): 0.17 h; Cmax ([3]; oral 100 μg 14C-labelled M4N after a high fat breakfast, mean±SD, read-out: Cmax for total 14C): 5.94 ± 1.33 pM; Cmax ([3]; oral 100 μg 14C-labelled M4N after an overnight fast, mean±SD, read-out: Cmax for total 14C): 9.29 ± 1.4 pM; apparent absorption ([3]; oral administration, fed and fasted state): very high; Tmax ([3]; oral, fasted subjects): ~1 h; Cmax ([3]; single intravenous dose 100 μg in 30% HP-β-CD, 25% PEG, mean±SD, read-out: Cmax for total 14C): 10.3 ± 1.77 pM; visual observation ([4]; 40 mg/mL M4N/PEG 300, 6 hours at 30° C.): tiny crystals were observed; stability by visual observations and RP-HPLC ([4]; 40 mg/mL M4N/PEG 300, 24 hours at 45° C. and 60° C.): stable
